Nine molecules from publication doi:10.1101/2021.06.18.448987v1 (biorxiv, 2021) can be followed below.

Like-named read-outs stand apart in the source and are kept apart here.

The target of series [1] is T1, AnaGlgC (Nostoc sp. PCC 7120 = FACHB-418, UniProt P30521).
T1 sequence (P30521 1-429): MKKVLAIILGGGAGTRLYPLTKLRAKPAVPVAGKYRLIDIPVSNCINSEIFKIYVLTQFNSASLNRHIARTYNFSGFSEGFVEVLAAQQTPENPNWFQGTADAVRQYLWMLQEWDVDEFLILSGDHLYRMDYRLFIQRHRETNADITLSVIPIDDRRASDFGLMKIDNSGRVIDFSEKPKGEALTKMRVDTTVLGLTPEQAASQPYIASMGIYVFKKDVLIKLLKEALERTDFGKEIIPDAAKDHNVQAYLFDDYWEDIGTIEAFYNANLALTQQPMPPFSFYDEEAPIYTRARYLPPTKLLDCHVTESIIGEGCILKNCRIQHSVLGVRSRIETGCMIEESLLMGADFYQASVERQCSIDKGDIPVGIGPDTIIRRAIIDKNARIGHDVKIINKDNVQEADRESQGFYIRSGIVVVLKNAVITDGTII
Kind of series: biochemical.

The target of series [2] is T1, AnaGlgC. In words: Malachite Green Pi release with inorganic pyrophosphatase, ADP-Glc synthesis. In kind it is biochemical.
In series [3] the test system is flMelGlgC. In words: activity assay, ADP-Glc synthesis. The series is classed as biochemical, Candidatus Melainabacteria bacterium GWF2_37_15. Conditions: read-out: I0.5; inhibitor; 10 mM MgCl2; MOPS pH 8.0; 37 °C.
Series [4] deals with inMelGlgC. Kind of series: activity assay, ADP-Glc synthesis. In kind it is biochemical, Candidatus Melainabacteria bacterium MEL.A1. Conditions: read-out: I0.5; inhibitor; 10 mM MgCl2; MOPS pH 8.0; 37 °C.
Series [5] deals with flMelGlgC. Conditions: read-out: S0.5, no effector, 10 mM MgCl2, MOPS pH 8.0, 37 °C.
Series [6] concerns inMelGlgC. As to conditions: read-out: S0.5, no effector, 10 mM MgCl2, MOPS pH 8.0, 37 °C.
For series [7], the target named is inMelGlgC. In words: Malachite Green Pi release with inorganic pyrophosphatase, ADP-Glc synthesis. In kind it is biochemical, Candidatus Melainabacteria bacterium MEL.A1. Conditions: read-out: A0.5; allosteric activator; 10 mM MgCl2; MOPS pH 8.0; 37 °C.
For series [8], the target named is flMelGlgC. Described as above. As to conditions: read-out: A0.5; allosteric activator; 10 mM MgCl2; MOPS pH 8.0; 37 °C. The series is classed as biochemical, Candidatus Melainabacteria bacterium GWF2_37_15.
Series [9] has as its target T1, AnaGlgC. Kind of series: coupled spectrophotometric assay. The series is classed as biochemical.
Substrate in series [10]: Nc1ncnc2c1ncn2[C@@H]1O[C@H](COP(=O)(O)OP(=O)(O)OP(=O)(O)O)[C@@H](O)[C@H]1O
Kind of series: purified protein. As to conditions: no effector, saturating Glc-1P, 10 mM MgCl2, MOPS pH 8.0, 37 °C.

Substrate in series [11]: O=P(O)(O)O[C@H]1O[C@H](CO)[C@@H](O)[C@H](O)[C@H]1O
In words: purified protein. As to conditions: no effector, saturating ATP, 10 mM MgCl2, MOPS pH 8.0, 37 °C.

The mark [12] stands for this setting: read-out: A0.5, allosteric activator, 10 mM MgCl2, MOPS pH 8.0, 37 °C.

Consider `O=C(O)[C@H](O)COP(=O)(O)O` [3-PGA], for which the EC50 at AnaGlgC [1] amounted to 190 ± 90 µM; on AnaGlgC [2] it was 200 µM.

For the molecule `Nc1ncnc2c1ncn2[C@@H]1O[C@H](COP(=O)(O)OP(=O)(O)O)[C@@H](O)[C@H]1O` [ADP], the figures for the IC50 with flMelGlgC [3] and with inMelGlgC [4] were 1440 ± 80 µM and 2300 ± 900 µM, respectively.

In the case of `Nc1ncnc2c1ncn2[C@@H]1O[C@H](COP(=O)(O)OP(=O)(O)OP(=O)(O)O)[C@@H](O)[C@H]1O` [ATP], the Km was determined as 340 ± 50 µM in the series with flMelGlgC [5] (saturating Glc-1P) and 250 ± 10 µM with inMelGlgC [6] (saturating Glc-1P).

Turning to `O=P(O)(O)OC[C@H]1OC(O)(CO)[C@@H](O)[C@@H]1O` (stereo partly shown) [Fru-6P], the EC50 at inMelGlgC [7] turned out to be 440 ± 50 µM; at AnaGlgC [2] (setting [12]), 900 ± 100 µM; on flMelGlgC [8] it was 1700 ± 100 µM.

Turning to `O=P(O)(O)O[C@H]1O[C@H](CO)[C@@H](O)[C@H](O)[C@H]1O` [Glc-1P], the Km was 2100 ± 200 µM in the series with flMelGlgC [5] (saturating ATP) and 320 ± 30 µM with inMelGlgC [6] (saturating ATP).

For `O=P(O)(O)OC[C@H]1OC(O)[C@H](O)[C@@H](O)[C@@H]1O` (stereo partly shown) [Glc-6P], the EC50 at inMelGlgC [7] is about 300 µM; on AnaGlgC [2] (setting [12]), 1450 ± 160 µM; on flMelGlgC [8], about 300 µM.

On to `O=P(O)(O)OC[C@H]1OC(O)[C@@H](O)[C@@H](O)[C@@H]1O` (stereo partly shown) [Man-6P], for which the EC50 on inMelGlgC [7] stood at 520 ± 20 µM; at flMelGlgC [8] it was 450 ± 40 µM.

As to `O=P(O)(O)O` [Pi], the IC50 on AnaGlgC [9] is 90 µM.

B1: AnaGlgC (Nostoc sp. PCC 7120 = FACHB-418) (protein)
chain: T1 sequence (P30521 1-429)
On to B1, for which the K0.5 is given as 0.40 ± 0.04 mM in the series “purified protein [10]” and 0.08 ± 0.02 mM in the series “purified protein [11]”.
